{"source": "patent US20230201147A1", "about": "“COCRYSTAL ANTIOXIDANTS OF PROTOCATECHUIC ACID WITH L-THEANINE FOR THE TREATMENT OF OXIDATIVE STRESS AND INFLAMMATORY CONDITIONS” (priority 2020, published 2023)", "origin": "cited, not measured here", "tested_on": "thrombin-stimulated thromboxane formation", "details": "whole blood", "data": [{"smiles": "CCNC(=O)CC[C@H](N)C(=O)O", "note": "[L-theanine, N-ethyl-L-glutamine]", "values": [{"measurement": "inhibition of thrombin-stimulated thromboxane formation", "result": "potent inhibitor"}]}]}
